Patent US20060069132A1, “Azolecarboxamide herbicides” (priority 2004, published 2006)

Tests used:
Experiment in all cases: Test C pre-/postemergence herbicide test
giant foxtail = assay type: in vivo, Setaria faberi
Summary of the method: (§1)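 Pre- and postemergence application, solvent/surfactant formulation; post at 1- to 4-leaf stage (2–18 cm). Greenhouse 12–14 d. Visual rating vs controls, 0 = no effect, 100 = complete control.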

Surinam grass = assay type: in vivo, Urochloa decumbens
Summary of the method: as §1

common ragweed = assay type: in vivo, Ambrosia elatior; set-up: key to Plant response rating, Ragweed: 0 = no effect, 100 = complete control
Summary of the method: as §1

corn = assay type: in vivo, Zea mays
Summary of the method: as §1

morningglory = assay type: in vivo, Ipomoea coccinea; set-up: key to Plant response rating, Morningglory: 0 = no effect, 100 = complete control
Summary of the method: as §1

soybean = assay type: in vivo, Glycine max
Summary of the method: as §1

kochia = assay type: in vivo, Kochia scoparia
Summary of the method: as §1

[1] = 62 g ai/ha, preemergence, scale 0 to 100
[2] = 250 g ai/ha, scale 0-100, preemergence
[3] = 500 g ai/ha, scale 0 to 100 (0 no effect, 100 complete control), visual, 12 to 14 days, preemergence

Cc1nn(C(C)(C)C)nc1C(=O)Nc1cccc(C(=S)N(C)C)c1 [Compound 419]
Plant response rating, Foxtail, Giant (giant foxtail; [1]): 75 | Plant response rating (0 = no effect, 100 = complete control), Foxtail, Giant (giant foxtail; 125 g ai/ha, preemergence): 85 | Plant response rating, Foxtail, Giant (giant foxtail; [2]): 95 | Plant response rating, Foxtail, Giant (giant foxtail; [3]): 100 | Plant response rating, Surinam Grass (Surinam grass; [1]): 0 | Plant response rating (0 = no effect, 100 = complete control), Surinam Grass (Surinam grass; 125 g ai/ha, preemergence): 45 | Plant response rating, Surinam Grass (Surinam grass; [3]): 100 | Plant response rating, Ragweed (common ragweed; [1]): 10 | Plant response rating (0 = no effect, 100 = complete control), Ragweed (common ragweed; 125 g ai/ha, preemergence): 15 | Plant response rating, Ragweed (common ragweed; [3]): 100 | Plant response rating, Corn (corn; [1]): 0 | Plant response rating (0 = no effect, 100 = complete control), Corn (corn; 125 g ai/ha, preemergence): 0 | Plant response rating, Corn (corn; [2]): 0 | Plant response rating, Corn (corn; [3]): 40 | Plant response rating, Morningglory (morningglory; [1]): 15 | Plant response rating (0 = no effect, 100 = complete control), Morningglory (morningglory; 125 g ai/ha, preemergence): 25 | Plant response rating, Morningglory (morningglory; [3]): 100 | Plant response rating, Soybean (soybean; [1]): 40 | Plant response rating (0 = no effect, 100 = complete control), Soybean (soybean; 125 g ai/ha, preemergence): 85 | Plant response rating, Soybean (soybean; [3]): 95 | Plant response rating, Kochia (kochia; [1]): 90 | Plant response rating (0 = no effect, 100 = complete control), Kochia (kochia; 125 g ai/ha, preemergence): 95 | Plant response rating, Kochia (kochia; [2]): 100 | Plant response rating, Kochia (kochia; [3]): 100

CCNC(=O)c1cccc(NC(=O)c2nn(C(C)(C)C)cc2Br)c1 [Compound 221, 4-bromo-1-(1,1-dimethylethyl)-N-[3-[(ethylamino)carbonyl]phenyl]-1H-pyrazole-3-carboxamide]
pest or weed control at 62 g/ha (giant foxtail; Setaria faberi, pre-emergence, 312 h, 62 g ai/ha, preemergence, scale 0 to 100, read-out: Plant response rating, Foxtail, Giant): 0% | pest or weed control at 125 g/ha (giant foxtail; Setaria faberi, pre-emergence, 312 h, 125 g ai/ha, scale 0 (no effect) to 100 (complete control), visual, 12 to 14 days, read-out: Plant response rating, Foxtail, Giant): 0% | pest or weed control at 250 g/ha (giant foxtail; Setaria faberi, pre-emergence, 312 h, 250 g ai/ha, scale 0-100, read-out: Plant response rating, Foxtail, Giant): 40% | pest or weed control at 500 g/ha (giant foxtail; Setaria faberi, pre-emergence, 312 h, 500 g ai/ha, scale 0 to 100 (0 no effect, 100 complete control), visual, 12 to 14 days, read-out: Plant response rating, Foxtail, Giant): 90% | pest or weed control at 62 g/ha (Surinam grass; Urochloa decumbens, pre-emergence, 312 h, 62 g ai/ha, preemergence, scale 0 to 100, read-out: Plant response rating, Surinam Grass): 0% | pest or weed control at 250 g/ha (Surinam grass; Urochloa decumbens, pre-emergence, 312 h, 250 g ai/ha, scale 0-100, read-out: Plant response rating, Surinam Grass): 10% | pest or weed control at 500 g/ha (Surinam grass; Urochloa decumbens, pre-emergence, 312 h, 500 g ai/ha, scale 0 to 100 (0 no effect, 100 complete control), visual, 12 to 14 days, read-out: Plant response rating, Surinam Grass): 45% | pest or weed control at 62 g/ha (common ragweed; Ambrosia artemisiifolia, pre-emergence, 62 g ai/ha, preemergence, scale 0 to 100, read-out: Plant response rating, Ragweed): 0% | pest or weed control at 500 g/ha (common ragweed; Ambrosia artemisiifolia, pre-emergence, 500 g ai/ha, scale 0 to 100 (0 no effect, 100 complete control), visual, 12 to 14 days, read-out: Plant response rating, Ragweed): 60% | Corn plant response rating (crop injury, 0 = no effect, 100 = complete kill) at 62 g/ha (corn; Zea mays, pre-emergence, 312 h, 62 g ai/ha, preemergence, scale 0 to 100): 0% | Corn plant response rating (crop injury, 0 = no effect, 100 = complete kill) at 125 g/ha (corn; Zea mays, pre-emergence, 312 h, 125 g ai/ha, scale 0 (no effect) to 100 (complete control), visual, 12 to 14 days): 0% | Corn plant response rating (crop injury, 0 = no effect, 100 = complete kill) at 250 g/ha (corn; Zea mays, pre-emergence, 312 h, 250 g ai/ha, scale 0-100): 0% | Corn plant response rating (crop injury, 0 = no effect, 100 = complete kill) at 500 g/ha (corn; Zea mays, pre-emergence, 312 h, 500 g ai/ha, scale 0 to 100 (0 no effect, 100 complete control), visual, 12 to 14 days): 10% | pest or weed control at 62 g/ha (morningglory; Ipomoea, pre-emergence, 62 g ai/ha, preemergence, scale 0 to 100, read-out: Plant response rating, Morningglory): 0% | pest or weed control at 125 g/ha (morningglory; Ipomoea, pre-emergence, 125 g ai/ha, scale 0 (no effect) to 100 (complete control), visual, 12 to 14 days, read-out: Plant response rating, Morningglory): 0% | pest or weed control at 250 g/ha (morningglory; Ipomoea, pre-emergence, 250 g ai/ha, scale 0-100, read-out: Plant response rating, Morningglory): 0% | pest or weed control at 500 g/ha (morningglory; Ipomoea, pre-emergence, 500 g ai/ha, scale 0 to 100 (0 no effect, 100 complete control), visual, 12 to 14 days, read-out: Plant response rating, Morningglory): 0% | plant injury at 62 g/ha (soybean; Glycine max, pre-emergence, 62 g ai/ha, preemergence, scale 0 to 100, read-out: Plant response rating, Soybean): 0% | plant injury at 250 g/ha (soybean; Glycine max, pre-emergence, 250 g ai/ha, scale 0-100, read-out: Plant response rating, Soybean): 0% | plant injury at 500 g/ha (soybean; Glycine max, pre-emergence, 500 g ai/ha, scale 0 to 100 (0 no effect, 100 complete control), visual, 12 to 14 days, read-out: Plant response rating, Soybean): 20% | pest or weed control at 62 g/ha (kochia; Bassia scoparia, pre-emergence, 62 g ai/ha, preemergence, scale 0 to 100, read-out: Plant response rating, Kochia): 0% | pest or weed control at 125 g/ha (kochia; Bassia scoparia, pre-emergence, 125 g ai/ha, scale 0 (no effect) to 100 (complete control), visual, 12 to 14 days, read-out: Plant response rating, Kochia): 0% | pest or weed control at 250 g/ha (kochia; Bassia scoparia, pre-emergence, 250 g ai/ha, scale 0-100, read-out: Plant response rating, Kochia): 65% | pest or weed control at 500 g/ha (kochia; Bassia scoparia, pre-emergence, 500 g ai/ha, scale 0 to 100 (0 no effect, 100 complete control), visual, 12 to 14 days, read-out: Plant response rating, Kochia): 100%
